Experimental data: patent publication US8546482B2, “Low odor compositions and low odor coating compositions” (Rohm and Haas Company, priority 2009, dated 2013)

What was measured:
Format in all cases: biochemical
CALBL = biological target: T1, CALBL (Moesziomyces antarcticus, UniProt P41365); assay: Small molecule inhibitors, EA content of latex containing CALBL; parameters: EA content (column not headed): unit not given here; conditions: for Inhibition of the carboxylesterase enzyme (in words): CALBL 60 ppm, inhibitor 1.0%; for Effect of low inhibitor levels on enzyme activity (in words) / EA content (column not headed): CALBL 6 ppm; for Effect of low inhibitor levels on enzyme activity (in words): inhibitor as low as 0.01% or even 0.001% (solid on wet latex); for EA content (column not headed): latex
T1 construct: purchased Novozymes, Bagsvaerd, Denmark Novozym CALB L
T1 sequence (P41365 26-342): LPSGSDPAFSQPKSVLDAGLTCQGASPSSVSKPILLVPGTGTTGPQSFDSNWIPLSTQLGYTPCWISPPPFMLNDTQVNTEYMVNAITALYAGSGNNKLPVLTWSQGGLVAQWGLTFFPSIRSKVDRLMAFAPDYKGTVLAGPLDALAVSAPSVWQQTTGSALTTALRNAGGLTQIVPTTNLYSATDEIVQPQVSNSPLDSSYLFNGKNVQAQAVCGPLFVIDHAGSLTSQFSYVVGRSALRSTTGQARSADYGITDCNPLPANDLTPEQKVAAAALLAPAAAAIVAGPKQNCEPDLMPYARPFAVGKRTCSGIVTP
Protocol: (§1) In another embodiment, deactivation of the carboxylesterase enzyme may be achieved by the addition of a small molecule inhibitor, as shown for CALBL and N51032 in Tables 13 and 14, below. […] The small molecule inhibitor and CALBL were added simultaneously at the time t=0. In the following tables, the potential small molecule inhibitors are as follows: • PBA—phenylboronic acid • S-1-DS—Sodium 1-decane-sulfonate • NPB—Neopentylboronic acid • 2MPB—(2-methylpropyl)boronic acid • CBA—cyclohexylboronic acid
(§2) Again, optimization of the level of use for PBA and 2MPB in the latex is explored below, in Tables 15 and 16, respectively, by the same procedure.

N51032 [1] = assay: Small molecule inhibitors, EA content of latex containing N51032; conditions: N51032 5 ppm; for Effect of low inhibitor levels on enzyme activity (in words): inhibitor as low as 0.01% or even 0.001% (solid on wet latex); for EA content (column not headed): latex
N51032 [2] = assay: as above; conditions: N51032 50 ppm; inhibitor 1%
Protocol: as §1
The small molecule inhibitors are added at 1% by weight of solids on weight of wet latex (at the same time as the esterase).
as §2

SMILES	Inhibition of the carboxylesterase enzyme (in words) (CALBL)	Effect of low inhibitor levels on enzyme activity (in words) (N51032 [1])	EA content (column not headed) (N51032 [1]; inhibitor 0.001%, 0 hr) [ppm]	EA content (column not headed) (N51032 [1]; inhibitor 0.001%, 120 hr) [ppm]	EA content (column not headed) (N51032 [1]; inhibitor 0.001%, 168 hr) [ppm]	EA content (column not headed) (N51032 [1]; inhibitor 0.001%, 384 hr) [ppm]	EA content (column not headed) (N51032 [1]; inhibitor 0.001%, 480 hr) [ppm]	EA content (column not headed) (N51032 [1]; inhibitor 0.01%, 0 hr) [ppm]	EA content (column not headed) (N51032 [1]; inhibitor 0.01%, 120 hr) [ppm]	EA content (column not headed) (N51032 [1]; inhibitor 0.01%, 168 hr) [ppm]	EA content (column not headed) (N51032 [1]; inhibitor 0.01%, 384 hr) [ppm]	EA content (column not headed) (N51032 [1]; inhibitor 0.01%, 480 hr) [ppm]	EA content (column not headed) (N51032 [1]; inhibitor 0.1%, 0 hr) [ppm]	EA content (column not headed) (N51032 [1]; inhibitor 0.1%, 120 hr) [ppm]	EA content (column not headed) (N51032 [1]; inhibitor 0.1%, 168 hr) [ppm]	EA content (column not headed) (N51032 [1]; inhibitor 0.1%, 384 hr) [ppm]	EA content (column not headed) (N51032 [1]; inhibitor 0.1%, 480 hr) [ppm]	Effect of low inhibitor levels on enzyme activity (in words) (CALBL)	EA content (column not headed) (CALBL; inhibitor 0.001%, 0 hr)	EA content (column not headed) (CALBL; inhibitor 0.001%, 120 hr)	further results
OB(O)C1CCCCC1 [CBA, cyclohexylboronic acid]	some ability to inhibit the CALBL enzyme	–	–	–	–	–	–	–	–	–	–	–	–	–	–	–	–	–	–	–	–
CC(C)(C)CB(O)O [NPB, Neopentylboronic acid]	completely ineffective as an inhibitor	–	–	–	–	–	–	–	–	–	–	–	–	–	–	–	–	–	–	–	–
OB(O)c1ccccc1 [PBA, phenylboronic acid]	effective in inhibiting the carboxylesterase enzyme	sufficient to shut off the enzyme activity	46	36	34	22	19	45	41	39	34	34	46	34	41	38	39	sufficient to shut off the enzyme activity	48	30	EA content (column not headed) (CALBL; inhibitor 0.001%, 168 hr): 25; EA content (column not headed) (CALBL; inhibitor 0.001%, 384 hr): 11; EA content (column not headed) (CALBL; inhibitor 0.001%, 480 hr): 9; EA content (column not headed) (CALBL; inhibitor 0.01%, 0 hr): 44; EA content (column not headed) (CALBL; inhibitor 0.01%, 120 hr): 32; EA content (column not headed) (CALBL; inhibitor 0.01%, 168 hr): 26; EA content (column not headed) (CALBL; inhibitor 0.01%, 384 hr): 15; EA content (column not headed) (CALBL; inhibitor 0.01%, 480 hr): 15; EA content (column not headed) (CALBL; inhibitor 0.1%, 0 hr): 39; EA content (column not headed) (CALBL; inhibitor 0.1%, 120 hr): 35; EA content (column not headed) (CALBL; inhibitor 0.1%, 168 hr): 35; EA content (column not headed) (CALBL; inhibitor 0.1%, 384 hr): 29; EA content (column not headed) (CALBL; inhibitor 0.1%, 480 hr): 29; Inhibition of the carboxylesterase enzyme (in words) (N51032 [2]): effective in inhibiting the carboxylesterase enzyme
CC(C)CB(O)O [Paint 2MPB, (2-methylpropyl)boronic acid]	effective in inhibiting the carboxylesterase enzyme	sufficient to shut off the enzyme activity	42	24	22	8	6	37	25	19	6	5	43	34	27	22	20	sufficient to shut off the enzyme activity	44	32	EA content (column not headed) (CALBL; inhibitor 0.001%, 168 hr): 23; EA content (column not headed) (CALBL; inhibitor 0.001%, 384 hr): 10; EA content (column not headed) (CALBL; inhibitor 0.001%, 480 hr): 8; EA content (column not headed) (CALBL; inhibitor 0.01%, 0 hr): 43; EA content (column not headed) (CALBL; inhibitor 0.01%, 120 hr): 28; EA content (column not headed) (CALBL; inhibitor 0.01%, 168 hr): 24; EA content (column not headed) (CALBL; inhibitor 0.01%, 384 hr): 13; EA content (column not headed) (CALBL; inhibitor 0.01%, 480 hr): 11; EA content (column not headed) (CALBL; inhibitor 0.1%, 0 hr): 43; EA content (column not headed) (CALBL; inhibitor 0.1%, 120 hr): 34; EA content (column not headed) (CALBL; inhibitor 0.1%, 168 hr): 25; EA content (column not headed) (CALBL; inhibitor 0.1%, 384 hr): 15; EA content (column not headed) (CALBL; inhibitor 0.1%, 480 hr): 13
CCCCCCCCCCS(=O)(=O)[O-].[Na+] [Paint S-1-DS, Sodium 1-decane-sulfonate]	some ability to inhibit the CALBL enzyme	–	–	–	–	–	–	–	–	–	–	–	–	–	–	–	–	–	–	–	–
